# In publication PMC7769561, “Antileishmanial activity of synthetic analogs of the naturally occurring quinolone alkaloid N-methyl-8-methoxyflindersin” (PLoS ONE, 2020):
# “And” between values parts separate entries of the source, which are not always exact repeats. Equal values may be shown once.
# What was measured:
# [1] = Treatment toxicity in hamsters (live weight, ALT, creatinine, BUN); assay type: in vivo, golden hamster (Mesocrisetus auratus); details: topical 1% ointment
# Description: The hamsters were monitored every 4 weeks to assess their appearance and weight and the lesion size. We categorized each compound’s effectiveness pre- and posttreatment as follows: (i) cure (complete disappearance of lesions), (ii) improvement (>10% reduced lesion area), and (iii) therapeutic failure or nonresponse (increased lesion size). The health status was monitored weekly for 3 months (12 weeks) posttreatment. After 3 months, the hamsters were euthanized in a CO2 chamber. We performed histopathological analysis after necropsy of the affected tissues and organs. In addition, we evaluated treatment cytotoxicity using LW monitoring and biochemical parameters (alanine aminotransferase [ALT], creatinine, and blood urea nitrogen [BUN]) pretreatment and 45 days after ointment administration.
# [2] = test system: hMDMs; test: Cytotoxicity in hMDMs (resazurin, 72 h); details: class by CC50
# Experimental: We isolated hMDMs from buffy coats donated by the Institute of Local Science (Biotechnology and Health Innovation, Bogotá, Colombia) and spun them in Lymphoprep density gradient medium (Stem-Cell, Vancouver, Canada).
# Next, we added 100 μL of this culture to each quinoline alkaloid–like compound at a concentration of 200, 20, 2, 0.2, and 0.02 μg/mL. […] Cells treated with amphotericin B (Sigma-Aldrich) were used as cell apoptosis (positive) controls. Results were expressed as the medial cytotoxic concentration (CC50) using Prism GraphPad software for nonlinear regression analysis (https://www.graphpad.com/scientific-software/prism/).
# All assays required at least three independently duplicated experiments. We determined cytotoxicity against hMDMs and effectivity in L. (V) panamensis promastigotes according to each treatment’s mortality (compound and concentration) using Eq 1, where the control mean fluorescence intensity (MFI) was 100% viability: Validityinhibition(%)=100−[MIFexposedcells/MIFunexposedcells×100] (1)
# (§1) We used GraphPad Prism nonlinear regression analysis to estimate the percentage mortality with regard to CC50 and EC50. […] The antileishmanial activity with regard to promastigotes was classified as active according to Eq 2: Active=EC50<[LC50/2], (2) where LC50 is the median lethal concentration. We also used GraphPad Prism nonlinear regression analysis to determine the intracellular antileishmanial activity (concentration vs. response), depending on the infection (number of infected cells) and parasite burden (number of parasites/cell) obtained in experimental conditions. Parasite inhibition was estimated using Eq 3, where the plate MFI is 100% parasites: Infectioninhibition(%)=100−[(MIFexposedparasites/MIFunexposedparasites×100)] (3)
# [3] = test system: L. (V.) panamensis-infected hMDMs; test: NO production in L. (V.) panamensis-infected hMDMs (DAF-FM flow cytometry); assay type: cell-based, human; details: compound at EC50, 24, 48 and 72 h
# Experimental: (§2) Next, we detached the cells with ethylenediaminetetraacetic acid (EDTA)/trypsin (Lonza, MD, USA) and 2',7'-dichlorodihydrofluorescein diacetate (H2DCFDA) tagged on a 5 μM fluorescent tube (Sigma-Aldrich) in order to identify intracellular ROS and/or 4-amino-5-methylamino-2′,7′-difluorofluorescein (DAF-FM; Sigma-Aldrich) for NO production in a 5% CO2 atmosphere for 45 min at 37°C. ROS and NO were quantified using flow cytometry (FACS Canto II) at a wavelength of 480 nm. Untreated cells were used as negative controls, while cells treated with 0.0001% H2O2 and 1 μM phorbol myristate acetate were used as ROS production (positive) controls. LPS (10 ng/mL) and phytohemagglutinin (PHA-M) (10 μL/mL) (Invitrogen) were used as positive controls for NO production.
# [4] = test system: L. (V.) panamensis intracellular amastigotes; test: Antileishmanial activity in L. (V.) panamensis intracellular amastigotes in hMDMs; assay type: cell-based, Leishmania (Viannia) panamensis
# Experimental: Next, 100 μL of the suspension was cultured in 96-well plates and infected with L. (V.) panamensis promastigotes (HMOM/COL/87/UA-140) at a 10:1 parasite:cell ratio. We incubated the plates in a 5% CO2 atmosphere for 4 h at 35°C. After incubation, we removed noninternalized parasites by washing the cells with 0.9% NaCl saline solution (Baxter International, Deerfield, IL, USA). The cells were incubated again for 24 h and then treated with each quinoline alkaloid–like compound at a concentration of 100, 10, 1, 0.1, and 0.01 μg/mL in a 5% CO2 atmosphere for 72 h at 36°C. Next, we quantified the percentage of infected cells using fluorescence microscopy, as previously described by Pérez-Cordero in 2011 [23], and quantified the parasite load (amount of intracellular promastigotes and amastigotes per cell) using Giemsa staining and flow cytometry (Cytomics FC 500 MPL; Beckman Coulter, Brea, CA, USA). […] Results were expressed as EC50 using Prism GraphPad software’s probit nonlinear regression analysis (https://www.graphpad.com/scientific-software/prism/).
# as §1
# The percentage inhibition was used to calculate EC50 by nonlinear regression analysis (fluorescence microscopy), while the parasite burden was evaluated as the percentage of intracellular promastigotes and amastigotes in 100 infected cells (Giemsa staining). […] The selectivity index (SI) was estimated using the following formula: SI=CC50/EC50
# [5] = test system: L. (V.) panamensis intracellular amastigotes; test: Transmission electron microscopy of L. (V.) panamensis intracellular amastigotes in hMDMs; assay type: cell-based, Leishmania (Viannia) panamensis; set-up: Nucleus (ultrastructural alteration grade) / Vacuoles (ultrastructural alteration grade): key: -: no alteration/absence; +: low alteration/low presence; ++: alteration/moderate presence; +++: serious disturbance/abundant presence; details: compound at EC50, 72 h, TEM; on Cell membrane (ultrastructural alteration grade): key: -: no alteration/absence; +: low alteration/low presence; ++: alteration/moderate presence; +++: serious disturbance/abundant presence; on Flagellum (flagellar/axonema pocket) (grade): key: -: no alteration/absence; +: low alteration/low presence; ++: alteration/moderate presence; +++: serious disturbance/abundant presence; on LB (lipid bodies, grade): key: -: no alteration/absence; +: low alteration/low presence; ++: alteration/moderate presence; +++: serious disturbance/abundant presence; on Mitochondria/Kinetoplasts (ultrastructural alteration grade): key: -: no alteration/absence; +: low alteration/low presence; ++: alteration/moderate presence; +++: serious disturbance/abundant presence
# Description: (§3) This procedure involved including fresh resin and 100–200-nm-wide ultrafine cuts observed by TEM (100X–10.000X) (HITACHI-HU-12; Hitachi, Tokyo, Japan).
# [6] = test system: L. (V.) panamensis-infected hMDMs; test: ROS generation in L. (V.) panamensis-infected hMDMs (H2DCFDA flow cytometry); assay type: cell-based, human
# Experimental: as §2
# [7] = test system: L. (V.) panamensis-infected hMDMs; test: Transmission electron microscopy of L. (V.) panamensis-infected hMDMs; assay type: cell-based, human; details: compound at EC50, 72 h, TEM
# Description: as §3
# [8] = amastigotes in hMDMs, 72 h, ± SD
substance,measurement,setting,value
"1,2,3,4-tetrahydro(benzo)-3-quinolin-ol [Compound 2]",Cytotoxicity-related clinical manifestations,[1],No cytotoxicity-related clinical manifestations
same,Live weight posttreatment,[1],no evident changes during treatment
same,Cytotoxicity class toward hMDMs,[2],high (high if CC50 < 100 μg/mL)
same,NO production compared to untreated infected hMDMs,[3],do not modulate the induction of NO production
same,SI (selectivity index = CC50/EC50),[4]; CC50 hMDMs / EC50 intracellular amastigotes,3.64 and > 3
same,EC50,[4]; [8],26 µM
same,EC50 Intracellular amastigotes,[4]; [8],5.2 ± 0.9 µg/mL
same,Antileishmanial activity class,"[4]; intracellular amastigotes, class by EC50",high (high if EC50 < 25 μg/mL)
same,Cell membrane (ultrastructural alteration grade),[5],-
same,Flagellum (flagellar/axonema pocket) (description),[5],Multiple organelles
same,Flagellum (flagellar/axonema pocket) (grade),[5],++
same,"LB (lipid bodies, grade)",[5],+++
same,Mitochondria/Kinetoplasts (description),[5],Multiple organelles
same,Mitochondria/Kinetoplasts (ultrastructural alteration grade),[5],++
same,Nucleus (description),[5],Abnormal distribution of chromatine
same,Nucleus (ultrastructural alteration grade),[5],++
same,PV (description),[5],Multiple
same,"PV (parasitophorous vacuoles, grade)",[5],+
same,Vacuoles (description),[5],Double membrane (autophagic-digestives)
same,Vacuoles (ultrastructural alteration grade),[5],+++
same,ROS generation,"[6]; compound at EC50, 48 h posttreatment",decrease in ROS generation
same,ROS generation,"[6]; compound at EC50, first 4 h",increase in ROS generation
same,Cell membrane (ultrastructural modification grade),[7],-
same,"LB (lipid bodies, grade)",[7],+++
same,Mitochondria (ultrastructural modification grade),[7],+
same,Nucleus (ultrastructural modification grade),[7],-
same,PV (description),[7],Multiple parasites per vacuole
same,"PV (parasitophorous vacuoles, grade)",[7],+
same,Parasites (grade),[7],++
same,Vacuoles (ultrastructural modification grade),[7],-
